The values below come from patent US20110281909A1, “SUBSTITUTED QUINOLINE DERIVATIVES AS H1 RECEPTOR ANTAGONISTS” (GLAXO GROUP LIMITED, priority 2007, published 2011).

The target in one experiment is T1, human H1 receptor (Homo sapiens, UniProt P35367).
T1 construct: expressed in transfected cells
Kind of experiment: Histamine H1 functional antagonist assay: antagonist duration after washout. The experiment is classed as cell-based. The following applies: at one or more time points after washout. Here is the method: The human H1 receptor is cloned using known procedures described in the literature [Biochem. Biophys. Res. Commun., 201(2):894 (1994)]. Chinese hamster ovary (CHO) cells stably expressing the human H1 receptor are generated according to known procedures described in the literature [Br. J. Pharmacol., 117(6):1071 (1996)]. […] Following the 30 min antagonist incubation period, the cells are washed two or three times with 200 μl of PBS and then 100 μl Tyrodes buffer is added to each well to initiate antagonist dissociation. […] After this period, the cells are challenged with histamine in the FLIPR™ as described above. The dose ratio at each time point is used to determine the fractional H1 receptor occupancy by the following equation: fractional receptor occupancy=(DR-1)/DR. The decrease in receptor occupancy over time approximates to a straight line and is analysed by linear regression. The slope of this straight line fit is used as an index of the dissociation rate of the antagonist. The dose ratios for antagonist treated cells and for antagonist treated and washed cells at each time point are used to calculate a relative dose ratio (rel DR) which is also used as an index of antagonist duration. […]

Experiment [1] concerns histamine-induced congestion. Kind of experiment: Intranasal challenge method: whole body plethysmography. The experiment is classed as in vivo, Female Dunkin-Hartley guinea pigs. The following applies: guinea pig, dosed intranasally at 1 mg/ml either 3 hr or 24 hr before histamine challenge.
Experimental: Intranasal Challenge Method: Whole Body Plethysmography
Female Dunkin-Hartley guinea pigs 150-250 g are sensitised twice daily for 5 days (week 1) with ovalbumin (OVA) and aluminium hydroxide (Al(OH)3 or Alum) in physiological saline, 25 μl/nostril. Solution is made up at 20 μg/ml OVA, 180 mg/ml Alum.
Pretreatment with test compound is performed at various times prior to histamine challenge. Efficacy dose-response curves are determined 1 hr and/or 3 hr after dosing whereas duration of action may be studied up to 7 days post dose (for example, at 24 hours). Test compounds are formulated as solutions in 0.9% sterile saline or suspensions in 0.9% sterile saline/tween80. […]
After the stipulated pre-dose time has been reached, guinea pigs are re-anaesthetised with isoflurane and dosed with either 10 mM or 15 mM histamine or phosphate-buffered saline (PBS), (25 μl per nostril). […] Data are analysed using ANOVA with post-hoc Fishers LSD test (general linear models, Statistica®) and finally Hochberg adjustment. Inhibition of histamine-induced congestion is determined by statistically significant differences between the mean responses of compound pre-treated groups compared to the vehicle pre-treated, histamine-challenged group.

Structures can show the parent of a compound that is named as a salt.

T1 sequence (P35367 whole entry): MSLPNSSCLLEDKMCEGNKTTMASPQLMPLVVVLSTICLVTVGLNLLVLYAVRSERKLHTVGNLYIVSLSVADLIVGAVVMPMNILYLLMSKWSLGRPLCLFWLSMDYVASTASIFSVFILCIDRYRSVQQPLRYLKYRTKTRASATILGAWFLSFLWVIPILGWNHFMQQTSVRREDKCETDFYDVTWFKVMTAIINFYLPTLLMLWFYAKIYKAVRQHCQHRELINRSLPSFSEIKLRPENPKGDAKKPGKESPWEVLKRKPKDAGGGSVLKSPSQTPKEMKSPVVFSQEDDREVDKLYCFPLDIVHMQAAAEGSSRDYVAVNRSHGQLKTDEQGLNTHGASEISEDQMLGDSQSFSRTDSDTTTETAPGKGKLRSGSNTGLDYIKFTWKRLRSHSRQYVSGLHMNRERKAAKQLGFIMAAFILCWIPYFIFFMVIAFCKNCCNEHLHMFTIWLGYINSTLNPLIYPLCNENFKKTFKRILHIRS

As for `CCCCc1cc(OC2CCN(CCCCNS(=O)(=O)CC(C)C)CC2)c2ncccc2c1` [Example 26, N-(4-{4-[(6-Butyl-8-quinolinyl)oxy]-1-piperidinyl}butyl)-2-methyl-1-propanesulfonamide, dihydrochloride salt], on human H1 receptor, the “duration of action compared with azelastine in the histamine H1 functional antagonist assay” value is “longer duration of action than azelastine”. For `CN1CCCC(n2nc(Cc3ccc(Cl)cc3)c3ccccc3c2=O)CC1` (centres unmarked) [azelastine], in experiment [1], the “inhibition of the response to histamine challenge (duration of action) in the intranasal challenge model” value is recorded as “failed to show a similar duration of action”.
